Experiments:
Assay type in all cases: cell-based
[1] = tested on: KHS1
[2] = tested on: EPHB2
[3] = tested on: LOK
[4] = tested on: MET
[5] = tested on: SLK
[6] = tested on: GCK
[7] = tested on: LATS2
[8] = tested on: ULK1
[9] = tested on: NEK7
[10] = tested on: PIP5K3
[11] = tested on: GCN2
[12] = tested on: MER
[13] = tested on: MAP2K1, MAP2K2; experiment: KiNativ kinase profiling in A375 cells; settings: Lys2, SEQ ID NO 79, 1.0 μM
[14] = tested on: KSR1
[15] = tested on: PITSLRE; experiment: KiNativ kinase profiling in A375 cells; settings: Lys2, SEQ ID NO 152, 1.0 μM
[16] = tested on: RSK1 domain2
[17] = tested on: GSK3B
[18] = tested on: ERK2
[19] = tested on: p70S6K
[20] = tested on: RAF1
[21] = tested on: PHKG1
[22] = tested on: ERK5
[23] = tested on: MAP3K4
[24] = tested on: LATS1
[25] = tested on: ITPK1
[26] = tested on: OSR1
[27] = tested on: CHK1
[28] = tested on: MAP2K7
[29] = tested on: MPSK1
[30] = tested on: EPHB1
[31] = tested on: RSK2 domain2
[32] = tested on: PDK1
[33] = tested on: ZC2/TNIK
[34] = tested on: MAP2K1
[35] = tested on: TAO2
[36] = tested on: CLK3
[37] = tested on: MAP3K1
[38] = tested on: Wnk1, Wnk2, Wnk3; experiment: KiNativ kinase profiling in A375 cells; settings: Lys2, SEQ ID NO 194, 1.0 μM
[39] = tested on: MAST3
[40] = tested on: FES
[41] = tested on: MST4, YSK1; experiment: KiNativ kinase profiling in A375 cells; settings: Lys2, SEQ ID NO 114, 1.0 μM
[42] = tested on: FRK
[43] = tested on: WM patient primary lymphoplasmacytic cells (LPCs); experiment: Apoptosis analysis (Annexin V/Propidium iodide); settings: for Apoptosis (%): 24 hours
Description: WM cells were treated with and without the compounds described herein. Cells were incubated at 37° C. with 0.01˜4 uM of the compounds described herein. Apoptosis analysis was performed using Annexin V/Propidium iodide staining with the Apoptosis Detection Kit I (BD Pharmingen). 1×10^6/well cells were treated in 24 well plates for ˜24 hours with inhibitors or corresponding controls. A minimum of 10,000 events were acquired using a BD™ FACSCanto II flow cytometer and analyzed with BD FACS DIVA Software.
Apoptosis analysis of WM patient primary lymphoplasmacytic cells (LPCs) was preformed following A-5 and A-14 treatment of Bone marrow mononuclear cells (BMMC) from WM patients for 24 hours. Apoptosis analysis was performed using Annexin V/Propidium iodide staining with the Apoptosis Detection Kit I (BD Pharmingen) in CD19-APC-cy7 antibody (BD Pharmingen) gated LPCs population.

CCN1CCN(Cc2ccc(NC(=O)c3ccc(C)c(Oc4cc(N)ncn4)c3)cc2C(F)(F)F)CC1 [(A-4), 3-((6-aminopyrimidin-4-yl)oxy)-N-(4-((4-ethylpiperazin-1-yl)methyl)-3-(trifluoromethyl)phenyl)-4-methylbenzamide]
inhibition of kinase labeling [1]: 15.8% | inhibition of kinase labeling [2]: −12.8% | inhibition of kinase labeling [3]: 19.9% | inhibition of kinase labeling [4]: −21.0% | inhibition of kinase labeling [5]: −14.3% | inhibition of kinase labeling [6]: 94.9% | inhibition of kinase labeling [7]: −1.9% | inhibition of kinase labeling [8]: −6.0% | inhibition of kinase labeling [9]: −7.2% | inhibition of kinase labeling [10]: 0.9% | inhibition of kinase labeling [11]: 20.8% | inhibition of kinase labeling [12]: 49.8% | inhibition of kinase labeling [13]: −16.3% | inhibition of kinase labeling [14]: −22.0% | inhibition of kinase labeling [15]: −10.4% | inhibition of kinase labeling [16]: −16.3% | inhibition of kinase labeling [17]: 0.5% | inhibition of kinase labeling [18]: −3.8% | inhibition of kinase labeling [19]: −2.3% | inhibition of kinase labeling [20]: 36.6% | inhibition of kinase labeling [21]: −49.0% | inhibition of kinase labeling [22]: 25.9% | inhibition of kinase labeling [23]: 19.2% | inhibition of kinase labeling [24]: 5.4% | inhibition of kinase labeling [25]: 1.2% | inhibition of kinase labeling [26]: −11.1% | inhibition of kinase labeling [27]: −5.0% | inhibition of kinase labeling [28]: −38.2% | inhibition of kinase labeling [29]: 16.1% | inhibition of kinase labeling [30]: −1.7% | inhibition of kinase labeling [31]: −24.1% | inhibition of kinase labeling [32]: 18.8% | inhibition of kinase labeling [33]: 23.9% | inhibition of kinase labeling [34]: 11.4% | inhibition of kinase labeling [35]: 86.0% | inhibition of kinase labeling [36]: −52.8% | inhibition of kinase labeling [37]: 26.9% | inhibition of kinase labeling [38]: 0.2% | inhibition of kinase labeling [39]: −8.1% | inhibition of kinase labeling [40]: 89.1% | inhibition of kinase labeling [41]: 4.6% | inhibition of kinase labeling [42]: 91.1%

CCN1CCN(Cc2ccc(NC(=O)c3ccc(C)c(Oc4ccnc(Nc5cnn(C)c5)n4)c3)cc2C(F)(F)F)CC1 [(A-14), N-(4-((4-ethylpiperazin-1-yl)methyl)-3-(trifluoromethyl)phenyl)-4-methyl-3-((2-((1-methyl-1H-pyrazol-4-yl)amino)pyrimidin-4-yl)oxy)benzamide]
Apoptosis (%) ([43]; Patient 5, 0.5 μM): 39.24% | Apoptosis (%) ([43]; Patient 5, 1.0 μM): 46.86% | Apoptosis (%) ([43]; Patient 6, 1.0 μM): 20.88% | Apoptosis (%) ([43]; Patient 7, 0.5 μM): 22.62% | Apoptosis (%) ([43]; Patient 7, 1.0 μM): 31.51% | Apoptosis (%) ([43]; Patient 8, 0.5 μM): 12.9% | Apoptosis (%) ([43]; Patient 8, 1.0 μM): 31.58% | Apoptosis (%) ([43]; Patient 9, 0.2 μM): 24.8% | Apoptosis (%) ([43]; Patient 9, 1.0 μM): 43.7% | Apoptosis (%) ([43]; Patient 10, 0.2 μM): 27.9% | Apoptosis (%) ([43]; Patient 10, 1.0 μM): 52% | Apoptosis (%) ([43]; Patient 11, 0.2 μM): 53.1% | Apoptosis (%) ([43]; Patient 11, 1.0 μM): 71.8% | apoptosis compared with DMSO control ([43]; WM patient primary LPCs): induced significant apoptosis

Reference: patent US10633348B2, “Methods to treat lymphoplasmacytic lymphoma” (Dana-Farber Cancer Institute, Inc., priority 2013, dated 2020)
